From patent US5486525A, “Platelet activating factor antagonists: imidazopyridine indoles” (priority 1994, dated 1996)
Like-named read-outs stand apart in the source and are kept apart here.

Molecular target: T1, PAF receptor (Oryctolagus cuniculus, UniProt G1TEI7)
T1 construct: platelet membranes were prepared by centrifugation and washing; tissue Pel-Freez (Rogers, AR); host or cells: rabbit blood platelets (membranes prepared from citrated whole rabbit blood)
Assay: PAF receptor binding assay: inhibition of specific [^3 H]C18 -PAF binding to rabbit platelet membranes

[1] = Table 1, rabbit platelet membranes, 0.6 nM [^3 H]C18 -PAF, 60 minutes at room temperature, Ki by Cheng and Prusoff, read-out: Ki

T1 sequence (G1TEI7 1-342): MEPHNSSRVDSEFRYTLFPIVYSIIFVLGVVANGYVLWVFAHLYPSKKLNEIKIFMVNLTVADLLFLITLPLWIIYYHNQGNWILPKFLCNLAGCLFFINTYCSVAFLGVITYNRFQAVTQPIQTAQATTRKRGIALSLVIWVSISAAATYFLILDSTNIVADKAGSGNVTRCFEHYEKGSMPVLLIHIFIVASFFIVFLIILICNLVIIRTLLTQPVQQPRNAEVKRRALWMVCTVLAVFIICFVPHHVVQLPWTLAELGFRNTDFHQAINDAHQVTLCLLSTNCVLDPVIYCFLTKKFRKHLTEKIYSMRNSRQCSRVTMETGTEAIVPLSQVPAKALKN

Row | Compound | Ki | also measured
1 | C#Cc1cccc2c1c(C(=O)c1ccc(Cn3c(C)nc4cnccc43)cc1)cn2C(=O)N(C)C [Example 107, 1-N,N-Dimethylcarbamoyl-4-ethynyl-3-{4-[(1H-2-methylimidazo[4.5-c]pyrid-1-yl)methyl]benzoyl}indole] | 0.6 nM | 
2 | Cc1nc2cnccc2n1-c1ccc(C(=O)c2cn(C(=O)N(C)C)c3cc(-c4ccc(F)cc4)ccc23)cc1 [Example 10, 1-N,N-Dimethylcarbamoyl-6-(4-fluorophenyl)-3-[4-(1H-2-methylimidazo[4.5-c]pyrid-1-yl)benzoyl]indole] | 258 nM | 
3 | Cc1nc2ccccc2n1Cc1ccc(C(=O)c2cn(C(=O)N(C)C)c3cc(-c4ccc(F)cc4)ccc23)cc1 [Example 2, 1-N,N-Dimethylcarbamoyl-6-(4-fluorophenyl)-3-{4-[(1H-2-methylbenzimidazolyl)methyl]benzoyl}indole] | 56 nM | 
4 | COC(=O)c1cccc2c1c(C(=O)c1ccc(Cn3c(C)nc4cnccc43)cc1)cn2CC(=O)C(C)(C)C [Example 135, 1-(1-Pinacolyl)4-methoxycarbonyl-3-{4-[(1H-2-methylimidazo[4.5-c]pyrid-1-yl)methyl]benzoyl}indole] | 1.3 nM | 
5 | Cc1nc2ccncc2n1Cc1cccc(C(=O)c2cn(C(=O)N(C)C)c3ccccc23)c1 [Example 20, 1-N,N-Dimethylcarbamoyl-3-{3-[(3H-2-methylimidazo[4.5-c]pyrid-3-yl)methyl]benzoyl}indole] |  | inhibition at 100 µM: 26%
6 | CCc1nc2cnccc2n1Cc1ccc(C(=O)c2cn(C(=O)N(C)C)c3ccccc23)cc1 [Example 33] | 29 nM | 
7 | Cc1nc2cnccc2n1Cc1cccc(C(=O)c2c[nH]c3ccccc23)c1 [Example 17, 3-{3-[(1H-2-Methylimidazo[4.5-c]pyrid-1-yl)methyl]benzoyl}indole] |  | Ki [1]: 422 nM
8 | Cc1nc2cnccc2n1CCCN(C)CC(=O)c1cn(C(=O)N(C)C)c2cc(-c3ccc(F)cc3)ccc12 [Example 95, 6-(4-Fluorophenyl)-3-{N-[3-(1H-2-methylimidazo[4.5-c]pyrid-1-yl)propyl]sarcosyl}indole-1-carboxylic acid dimethyl amide] |  | Ki [1]: 130 nM
